# Patent US7425557B2, “Inhibitors of glycogen synthase kinase 3” (Novartis Vaccines and Diagnostics, Inc., priority 1998, dated 2008)
# Target: human GSK3β (Homo sapiens, UniProt P49841)
# Assay: Screening for GSK3 inhibitory activity using a cell-free assay
# Assay type: biochemical
# Settings: read-out: IC50 with respect to GSK3
# Outline: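 Radiometric cell-free assay with recombinant human GSK3β phosphorylating a biotinylated peptide substrate for 3 h. Reactions were stopped with 50 μM ATP/20 mM EDTA and captured on streptavidin plates. Incorporated radiolabel was counted by scintillation and plotted against compound concentration.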
# human GSK3β, sequence (P49841 whole entry): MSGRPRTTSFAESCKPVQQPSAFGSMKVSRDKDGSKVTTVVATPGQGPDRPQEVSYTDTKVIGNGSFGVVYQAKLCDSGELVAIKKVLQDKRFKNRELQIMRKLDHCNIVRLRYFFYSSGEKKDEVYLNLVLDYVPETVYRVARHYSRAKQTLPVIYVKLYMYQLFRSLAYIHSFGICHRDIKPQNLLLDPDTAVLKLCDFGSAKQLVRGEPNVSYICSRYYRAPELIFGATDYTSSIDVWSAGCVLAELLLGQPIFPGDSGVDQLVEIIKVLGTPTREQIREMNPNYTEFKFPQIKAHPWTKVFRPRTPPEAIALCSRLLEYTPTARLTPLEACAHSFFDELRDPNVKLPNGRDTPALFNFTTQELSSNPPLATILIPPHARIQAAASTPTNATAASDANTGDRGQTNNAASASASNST
row,SMILES,IC50 [µM]
1,CC(C)(C)NC(=O)c1cnc(NCCNc2ccc([N+](=O)[O-])cn2)nc1-c1ccc(C#N)cc1 [N-(tert-butyl)[4-(4-cyano-phenyl)-2-({2-[(5-nitro(2-pyridyl))amino]ethyl}amino)pyrimidin-5-yl]carboxamide],≤ 1
2,N#Cc1ccc(-c2nc(NCCNc3ccc([N+](=O)[O-])cn3)ncc2C(=O)NCCO)cc1 [[4-(4-cyanophenyl)-2-({2-[(5-nitro(2-pyridyl))amino]ethyl}amino)pyrimidin-5-yl]-N-(2-hydroxyethyl)carboxamide],≤ 1
3,NC(=O)c1ccc(-c2ccnc(NCCCOc3cccc(Br)c3)n2)cc1 [4-(2-{[3-(3-bromophenoxy)propyl]-amino}pyrimidin-4-yl)benzamide],≤ 10
4,N#Cc1cccc(-c2nc(NCCNc3ccc([N+](=O)[O-])cn3)nc(-c3ccc([N+](=O)[O-])cc3)c2C(=O)O)c1 [4-(3-cyanophenyl)-2-({2-[(5-nitro(2-pyridyl))amino]ethyl}amino)-6-(4-nitrophenyl)pyrimidine-5-carboxylic acid],≤ 10
5,O=[N+]([O-])c1ccc(-c2ccnc(NCCNc3ccccn3)n2)cc1 [[4-(4-nitrophenyl)pyrimidin-2-yl][2-(2-pyridylamino)ethyl]amine],≤ 10
6,"N#Cc1cnc(NCCNc2ccc([N+](=O)[O-])c(N)n2)nc1-c1ccc(Cl)cc1Cl [2-({2-[(6-amino-5-nitro(2-pyridyl))amino]ethyl}amino)-4-(2,4-dichlorophenyl)pyrimidine-5-carbonitrile]",≤ 1
7,CCOC(=O)c1ccc(-c2ccnc(NCCNc3ccc([N+](=O)[O-])cn3)n2)cc1 [ethyl 4-[2-({2-[(5-nitro-2-pyridyl)amino]ethyl}amino)pyrimidin-4-yl]benzoate],≤ 10
8,"NC(=O)c1ccc(-c2ccnc(NCCCc3nc(Cl)c(Cl)[nH]3)n2)cc1 [4-(2-{[3-(4,5-dichloroimidazolyl)propyl]amino}pyrimidin-4-yl)benzamide]",≤ 1
9,O=[N+]([O-])c1ccc(NCCNc2nccc(NCc3ccc(Cl)cc3Cl)n2)nc1,≤ 10
10,O=[N+]([O-])c1ccc(NCCNc2ncc(-c3ncc[nH]3)c(-c3ccc(Br)cc3Cl)n2)nc1 [[4-(4-bromo-2-chlorophenyl)-5-imidazol-2-ylpyrimidin-2-yl]{2-[(5-nitro(2-pyridyl))amino]ethyl}amine],≤ 1
11,"Nc1nc(NCCNc2ccc([N+](=O)[O-])c(-c3ccc(Cl)cc3Cl)n2)ccc1[N+](=O)[O-] [{2-[(6-amino-5-nitro(2-pyridyl))amino]ethyl}[6-(2,4-dichlorophenyl)-5-nitro(2-pyridyl)]amine]",≤ 1
12,Oc1ccc(-c2ccnc(NCCCOc3ccc(Cl)cc3)n2)cc1 [4-(2-{[3-(4-chlorophenoxy)propyl]amino}pyrimidin-4-yl)phenol],≤ 10
13,O=C(NCc1cccc(I)c1)c1ccc(-c2ccnc(NCCNc3ccc([N+](=O)[O-])cn3)n2)cc1 [N-[(3-iodophenyl)methyl]{4-[2-({2-[(5-nitro(2-pyridyl))amino]ethyl}amino)pyrimidin-4-yl]phenyl}carboxamide],≤ 10
14,COc1cccc(NCCNc2nccc(-c3ccc(C(=O)NCc4cccc(Br)c4)cc3)n2)n1 [N-[(3-bromophenyl)methyl]{4-[2-({2-[(6-methoxy(2-pyridyl))amino]ethyl}amino)pyrimidin-4-yl]phenyl}carboxamide],≤ 10
15,CCOC(=O)c1cnc(NCCNc2ccc([N+](=O)[O-])c(NC)n2)nc1-c1ccc(C#N)cc1 [ethyl 4-(4-cyanophenyl)-2-[(2-{[6-(methylamino)-5-nitro(2-pyridyl)]amino}ethyl)amino]pyrimidine-5-carboxylate],≤ 10
16,"NC(=O)c1ccc(-c2ccnc(NCC(c3ccccc3)c3ccccc3)n2)cc1 [4-{2-[(2,2-diphenylethyl)amino]pyrimidin-4-yl}-benzamide]",≤ 10
17,"COc1ccc(OC)c(CCNc2nccc(-c3ccc(C(=O)NCc4cccc(Br)c4)cc3)n2)c1 [[4-(2-{[2-(2,5-dimethoxyphenyl)ethyl]amino}pyrimidin-4-yl)phenyl]-N-[(3-bromophenyl)methyl]carboxamide]",≤ 10
18,O=[N+]([O-])c1ccc(NCCNc2ncc(-n3cccn3)c(-c3ccc(Cl)cc3Cl)n2)nc1,≤ 1
19,N#Cc1ccc(-c2nc(NCCNc3ccc([N+](=O)[O-])cn3)ncc2C(=O)OCCN(CCO)CCO)cc1,≤ 1
20,CCOC(=O)c1c(CC)nc(NCCNc2ncccc2[N+](=O)[O-])nc1-c1ccc(C(N)=O)cc1 [ethyl 4-(4-carbamoylphenyl)-6-ethyl-2-({2-[(3-nitro(2-pyridyl))amino]ethyl}amino)pyrimidine-5-carboxylate],≤ 10
21,"COc1nc(NCCNc2ncc(-c3ncc[nH]3)c(-c3ccc(Cl)cc3Cl)n2)ccc1[N+](=O)[O-] [[4-(2,4-dichlorophenyl)-5-imidazol-2-ylpyrimidin-2-yl]{2-[(6-methoxy-5-nitro(2-pyridyl))amino]ethyl}amine]",≤ 1

# Second part, the compound after the results:
row,IC50 [µM],SMILES
1,≤ 1,CCOC(=O)c1cnc(NCCNc2ccc([N+](=O)[O-])cn2)nc1-c1ccc(C)cc1 [ethyl 4-(4-methylphenyl)-2-({2-[(5-nitro(2-pyridyl))amino]ethyl}amino)pyrimidine-5-carboxylate]
2,≤ 1,O=C(O)c1c(-c2ccc([N+](=O)[O-])cc2)nc(NCCNc2ccc([N+](=O)[O-])cn2)nc1-c1cccc(O)c1 [4-(3-hydroxyphenyl)-2-({2-[(5-nitro(2-pyridyl))amino]ethyl}amino)-6-(4-nitrophenyl)pyrimidine-5-carboxylic acid]
3,≤ 1,O=[N+]([O-])c1ccc(NCCNc2ncc(-c3ncc[nH]3)c(-c3ccc(Cl)cc3)n2)nc1 [[4-(4-chlorophenyl)-5-imidazol-2-ylpyrimidin-2-yl]{2-[(5-nitro(2-pyridyl))amino]ethyl}amine]
4,≤ 10,CCOC(=O)c1cnc(NCCNc2ccc([N+](=O)[O-])c(NCc3ccccc3)n2)nc1-c1ccc(C#N)cc1
5,≤ 10,O=C(O)c1c(-c2ccc([N+](=O)[O-])cc2)nc(NCCNc2ccc([N+](=O)[O-])cn2)nc1C1CCCCC1 [4-cyclohexyl-2-({2-[(5-nitro(2-pyridyl))amino]ethyl}amino)-6-(4-nitrophenyl)pyrimidine-5-carboxylic acid]
6,≤ 1,CCOC(=O)c1cnc(NCCNc2ccc([N+](=O)[O-])cn2)nc1-c1ccc(OC)cc1 [ethyl 4-(4-methoxyphenyl)-2-({2-[(5-nitro(2-pyridyl))amino]ethyl}amino)pyrimidine-5-carboxylate]
7,≤ 10,c1ccc(-c2ccnc(NCCNc3ccccn3)n2)cc1 [(4-phenylpyrimidin-2-yl)[2-(2-pyridylamino)ethyl]amine]
8,≤ 10,"COc1ccc(OC)c(CCNc2nccc(-c3cccnc3)n2)c1 [[2-(2,5-dimethoxyphenyl)ethyl](4-(3-pyridyl)pyrimidin-2-yl)amine]"
9,≤ 10,NC(=O)c1ccc(-c2ccnc(NCc3cccc(Br)c3)n2)cc1 [4-(2-{[(3-bromophenyl)methyl]amino}pyrimidin-4-yl)benzamide]
10,≤ 1,Cc1c[nH]c(-c2cnc(NCCNc3ccc([N+](=O)[O-])c(N)n3)nc2-c2ccc(Br)cc2Cl)n1 [{2-[(6-amino-5-nitro(2-pyridyl))amino]ethyl}[4-(4-bromo-2-chlorophenyl)-5-(4-methylimidazol-2-yl)pyrimidin-2-yl]amine]
11,≤ 1,CN(C)CCOC(=O)Nc1cnc(NCCNc2ccc([N+](=O)[O-])cn2)nc1-c1ccc(C#N)cc1 [[2-(dimethyl-amino)ethoxy]-N-[4-(4-cyanophenyl)-2-({2-[(5-nitro(2-pyridyl))amino]ethyl}amino)-pyrimidin-5-yl]carboxamide]
12,≤ 1,"CN1CCN(c2cnc(NCCNc3ccc([N+](=O)[O-])cn3)nc2-c2ccc(Cl)cc2Cl)CC1 [[4-(2,4-dichlorophenyl)-5-(4-methylpiperazinyl)pyrimidin-2-yl]{2-[(5-nitro(2-pyridyl))amino]ethyl}amine]"
13,≤ 10,CCOC(=O)c1cnc(NCCNc2ccc([N+](=O)[O-])cn2)nc1-c1cccc(C#N)c1 [ethyl 4-(3-cyanophenyl)-2-({2-[(5-nitro(2-pyridyl))amino]ethyl}amino)pyrimidine-5-carboxylate]
14,≤ 10,NC(=O)c1ccc(-c2ccnc(NCc3ccc(Br)cc3)n2)cc1 [4-(2-{[(4-bromophenyl)methyl]amino}pyrimidin-4-yl)benzamide]
15,≤ 1,"CC(=O)Nc1cnc(NCCNc2ccc([N+](=O)[O-])cn2)nc1-c1ccc(Cl)cc1Cl [N-[4-(2,4-dichlorophenyl)-2-({2-[(5-nitro(2-pyridyl))amino]ethyl}amino)pyrimidin-5-yl]-acetamide]"
16,≤ 1,COc1cccc(CNC(=O)c2ccc(-c3ccnc(NCCNc4ccc([N+](=O)[O-])cn4)n3)cc2)c1 [N-[(3-methoxyphenyl)methyl]{4-[2-({2-[(5-nitro(2-pyridyl))amino]ethyl}amino)pyrimidin-4-yl]phenyl}carboxamide]
17,≤ 1,Nc1nc(NCCNc2ncc(N3C(=O)c4cccnc4C3=O)c(-c3ccc(Cl)cc3Cl)n2)ccc1[N+](=O)[O-]
18,≤ 10,"NC(=O)c1ccc(-c2ccnc(NCc3cc(C(F)(F)F)cc(C(F)(F)F)c3)n2)cc1 [4-[2-({[3,5-bis(trifluoromethyl)phenyl]methyl}amino)pyrimidin-4-yl]benzamide]"
19,≤ 10,COc1cccc(-c2cccc(CNc3nccc(-c4ccc(C(N)=O)cc4)n3)c2)c1 [4-[2-({[3-(3-methoxyphenyl)phenyl]methyl}amino)pyrimidin-4-yl]benzamide]
20,≤ 1,N#Cc1cnc(NCCNc2nccc(-c3ccc(C(N)=O)cc3)n2)nc1N [4-[2-({2-[(4-amino-5-cyano-pyrimidin-2-yl)amino]ethyl}amino)pyrimidin-4-yl]benzamide]
21,≤ 1,CC(C)(C)OC(=O)c1cnc(NCCNc2ccc([N+](=O)[O-])cn2)nc1-c1ccc(C#N)cc1 [tert-butyl 4-(4-cyanophenyl)-2-({2-[(5-nitro(2-pyridyl))amino]-ethyl}amino)pyrimidine-5-carboxylate]
